Measurements as given in patent US20130245355A1, “3-HETARYL-SUBSTITUTED PYRROLO[2,3 B]PYRIDINE DERIVATIVES AS PDK1 INHIBITORS” (MERCK PATENT GMBH, priority 2010, published 2013).

Assays:
[1] = molecular target: T1, PDK1 (Homo sapiens, UniProt O15530); test: Test for the inhibition of PDK1 (flashplate, 33P-ATP); conditions: His6-PDK1 (1-50) 3.4 nM, 4 μM ATP, 30° C., 60 min; read-out: IC50 [PDK1] biochemical
T1 construct: His6 (N)
T1 sequence (O15530 51-556 limits assumed): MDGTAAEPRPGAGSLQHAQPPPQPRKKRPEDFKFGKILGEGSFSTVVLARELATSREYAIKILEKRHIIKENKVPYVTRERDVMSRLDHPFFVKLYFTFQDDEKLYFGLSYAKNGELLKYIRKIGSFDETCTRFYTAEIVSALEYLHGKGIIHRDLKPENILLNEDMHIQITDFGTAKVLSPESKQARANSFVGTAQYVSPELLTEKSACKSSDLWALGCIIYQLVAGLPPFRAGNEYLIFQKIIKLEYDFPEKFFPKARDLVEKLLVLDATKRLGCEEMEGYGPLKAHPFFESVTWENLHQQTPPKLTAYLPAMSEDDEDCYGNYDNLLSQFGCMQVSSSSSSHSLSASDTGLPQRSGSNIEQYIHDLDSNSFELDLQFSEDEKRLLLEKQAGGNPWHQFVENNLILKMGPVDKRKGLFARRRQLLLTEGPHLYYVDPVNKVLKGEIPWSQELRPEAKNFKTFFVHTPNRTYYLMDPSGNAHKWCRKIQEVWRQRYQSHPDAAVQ
Description: The experimental batches are carried out in a flashplate system with 384 wells/microtitration plate.
In each case, the PDK1 sample His6-PDK1 (1-50) (3.4 nM), the PDK1 substrate biotin-bA-bA-[…] (400 nM), 4 μM ATP (with 0.2μ Ci of ^33P-ATP/well) and the test substance in 50 μl of conventional experimental solution per well are incubated at 30° C. for 60 min. The test substances are employed in corresponding concentrations (if desired in a dilution series). The control is carried out without test substance. The reaction is stopped using standard methods and washed. The activity of the kinase is measured via the incorporated radioactivity in top count. In order to determine the non-specific kinase reaction (blank value), the experimental batches are carried out in the presence of 100 nM staurosporin.
The radioactivity (decompositions per minute) of the blank value (no use of test substance in the presence of staurosporin) is subtracted from all other radioactivity values. The controls (kinase activity without test substance) are set equal to 100 percent and all other radioactivity values (after subtracting the blank value) are expressed set in relation thereto (for example in % of the control).
IC50 values (50% inhibition) are determined with the aid of statistics programmes, such as, for example, RS1.

[2] = molecular target: T2, PDK1 (Homo sapiens, UniProt O15530); test: Cellular testing of PDK1 kinase inhibitors in PC3 cells (Luminex, phospho-T308-PKB); type: cell-based; conditions: 30 min, serum-free
T2 construct: endogenous in cells; host or cells: PC3 cells
T2 sequence (O15530 1-556): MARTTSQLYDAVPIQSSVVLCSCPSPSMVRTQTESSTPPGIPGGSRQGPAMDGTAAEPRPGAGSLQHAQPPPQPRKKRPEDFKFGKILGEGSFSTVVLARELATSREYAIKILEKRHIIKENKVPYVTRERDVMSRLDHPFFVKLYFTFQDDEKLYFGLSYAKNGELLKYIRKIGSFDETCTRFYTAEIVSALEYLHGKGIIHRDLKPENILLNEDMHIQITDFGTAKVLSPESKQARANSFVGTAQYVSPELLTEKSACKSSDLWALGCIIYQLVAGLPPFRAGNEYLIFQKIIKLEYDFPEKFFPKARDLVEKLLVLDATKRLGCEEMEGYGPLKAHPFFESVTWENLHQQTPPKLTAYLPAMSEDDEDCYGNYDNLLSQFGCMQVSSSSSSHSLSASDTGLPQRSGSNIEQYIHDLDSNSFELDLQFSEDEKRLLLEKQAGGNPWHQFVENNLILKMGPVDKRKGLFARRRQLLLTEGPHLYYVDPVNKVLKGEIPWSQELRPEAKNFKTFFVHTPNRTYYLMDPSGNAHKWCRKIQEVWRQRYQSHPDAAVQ
Description: Method for the Cellular Testing of PDK1 Kinase Inhibitors in PC3 Cells.
The cellular assay for the determination of the PDK1 kinase activity is carried out as a Luminex assay in the 96-well format. PC3 cells are sown at 20,000 cells per well in 100 μl of medium (45% of […]/45% of Ham's F12/10% of FCS) and incubated on the following day for 30 min with a serial dilution of the test substance (7 concentrations) under serum-free conditions. The cells are subsequently lysed using 90 μl of lysis buffer (20 mM tris/HCl pH 8.0, 150 mM NaCl, 1% of NP40, 10% of glycerol, 1% of phosphatase inhibitor I, 1% of phosphatase inhibitor II, 0.1% of protease inhibitor cocktail III, 0.01% of benzonase) per well, and the lysates are separated off from insoluble cell constituents by means of centrifugation through a 96-well filter plate (0.65 μm). The lysates are incubated overnight at 4° C. with shaking with Luminex beads to which an anti-total PKB antibody is coupled. The detection is carried out on the following day by addition of a phospho-T308-PKB antibody and a species-specific […] secondary antibody. The detection of phospho T308-PKB is carried out by measurement in a Luminex100 instrument by determination of 100 events per cavity in a measurement time of 60 sec. As pharmacological blank, the signals obtained from cells which have been treated with 10 μM staurosporin are subtracted from all other batches. The control value used for maximum phosphorylation of PKB on T308 are the signals from cells which have only been treated with the solvent (0.3% of DMSO). The values of the batches treated with test substance are calculated therefrom as percentage of control, and IC50 values are determined by means of RS 1.

Row | SMILES | IC50 [1] [µM] | IC50 [2] [µM]
1 | Cn1cc(-c2cnc3[nH]cc(-c4nnc(C(O)c5cccc(Cl)c5Cl)o4)c3c2)cn1 (stereo not shown) [A65] | 0.0005 to 1 | 0.0005 to 1
2 | Cn1cc(-c2cnc3[nH]cc(-c4nc(C(C)(O)c5ccccc5)no4)c3c2)cn1 (stereo not shown) [A67] | 1 to 10 | 0.0005 to 1
3 | Cn1cc(-c2cnc3[nH]cc(-c4cc(C(C)(O)c5ccccc5)n(CCO)n4)c3c2)cn1 (stereo not shown) [A68] | 0.0005 to 1 | 1 to 10
4 | C=C(c1ccccc1)c1cc(-c2c[nH]c3ncc(-c4cnn(C)c4)cc23)nn1CCO [A69] | 1 to 10 | 1 to 10
5 | Cn1cc(-c2cnc3[nH]cc(-c4nnc(C5(c6ccccc6F)CC5)o4)c3c2)cn1 [A70] | 0.0005 to 1 | 0.0005 to 1
6 | Cn1cc(-c2cnc3[nH]cc(-c4nc(C(C)(O)c5cccc(F)c5)no4)c3c2)cn1 (stereo not shown) [A72] | 0.0005 to 1 | 0.0005 to 1
7 | Cn1cc(-c2cnc3[nH]cc(-c4cc(C(O)c5ccccc5)[nH]n4)c3c2)cn1 (stereo not shown) [A74] | 0.0005 to 1 | 0.0005 to 1
8 | Cn1cc(-c2cnc3[nH]cc(-c4cc(C(O)c5ccccc5)on4)c3c2)cn1 (stereo not shown) [A75] | 0.0005 to 1 | 0.0005 to 1
9 | Cn1cc(-c2cnc3[nH]cc(-c4nc(C(C)(O)c5cccc(F)c5F)no4)c3c2)cn1 (stereo not shown) [A78] | 0.0005 to 1 | 0.0005 to 1
10 | Cn1cc(-c2cnc3[nH]cc(-c4nc(C(C)(O)c5ccccc5Cl)no4)c3c2)cn1 (stereo not shown) [A79] | 1 to 10 | 0.0005 to 1
11 | Cn1cc(-c2cnc3[nH]cc(-c4nc(C(C)(O)c5cccc(Cl)c5)no4)c3c2)cn1 (stereo not shown) [A80] | 0.0005 to 1 | 0.0005 to 1
12 | COC(c1ccccc1)c1nnc(-c2c[nH]c3ncc(-c4cnn(C)c4)cc23)o1 (stereo not shown) [A81] | 0.0005 to 1 | 1 to 10
13 | Cn1cc(-c2cnc3[nH]cc(-c4nnc(C(F)c5cccc(F)c5)o4)c3c2)cn1 (stereo not shown) [A82] | 1 to 10 | 1 to 10
14 | Cn1cc(-c2cnc3[nH]cc(-c4nnc(C5(c6ccccc6Cl)CC5)o4)c3c2)cn1 [A83] | 0.0005 to 1 | 0.0005 to 1
15 | Cn1cc(-c2cnc3[nH]cc(-c4cc(C(O)c5ccccc5)n(C)n4)c3c2)cn1 (stereo not shown) [A84] | 0.0005 to 1 | 1 to 10
16 | Cc1cc(C2(c3nnc(-c4c[nH]c5ncc(-c6cnn(C)c6)cc45)o3)CC2)ccn1 [A85, 5-(1-methyl-1H-pyrazol-4-yl)-3-{5-[1-(2-methylpyridin-4-yl)-cyclopropyl]-1,3,4-oxadiazol-2-yl}-1H-pyrrolo[2,3-b]pyridine] | 1 to 10 | 1 to 10
17 | Cn1cc(-c2cnc3[nH]cc(-c4nnc(C(O)c5ccccc5C(F)(F)F)o4)c3c2)cn1 (stereo not shown) [A86] | 0.0005 to 1 | 0.0005 to 1
18 | Cn1cc(-c2cnc3[nH]cc(-c4n[nH]c(C(O)c5ccccc5Cl)n4)c3c2)cn1 (stereo not shown) [A87, (2-chlorophenyl)-{5-[5-(1-methyl-1H-pyrazol-4-yl)-1H-pyrrolo[2,3-b]pyridin-3-yl]-2H-1,2,4-triazol-3-yl}-methanol] | 0.0005 to 1 | 1 to 10
19 | Cn1cc(-c2cnc3[nH]cc(-c4cc(C(C)(O)c5ccccc5Cl)[nH]n4)c3c2)cn1 (stereo not shown) [A88] | 0.0005 to 1 | 1 to 10
20 | Cn1cc(-c2cnc3[nH]cc(-c4cc(C(C)(O)c5ccccc5Cl)on4)c3c2)cn1 (stereo not shown) [A89] | 0.0005 to 1 | 0.0005 to 1
21 | Cn1cc(-c2cnc3[nH]cc(-c4nnc(C5(c6ccnc(Cl)c6)CC5)o4)c3c2)cn1 [A91] | 1 to 10 | 1 to 10

Results, then the molecule that gave them:

Row | IC50 [1] [µM] | IC50 [2] [µM] | SMILES
22 | 0.0005 to 1 | 1 to 10 | Cn1cc(-c2cnc3[nH]cc(-c4cc(C(C)(O)c5ccc(=O)n(C)n5)on4)c3c2)cn1 (stereo not shown) [A99, 6-(1-hydroxy-1-{3-[5-(1-methyl-1H-pyrazol-4-yl)-1H-pyrrolo-[2,3-b]pyridin-3-yl]isoxazol-5-yl}ethyl)-2-methyl-2H-pyridazin-3-one]
23 | 0.0005 to 1 | 1 to 10 | Cn1cc(-c2cnc3[nH]cc(-c4cc(C(O)(c5ccnnc5)C(C)(C)C)on4)c3c2)cn1 (stereo not shown) [A100, 2,2-dimethyl-1-{3-[5-(1-methyl-1H-pyrazol-4-yl)-1H-pyrrolo-[2,3-b]pyridin-3-yl]isoxazol-5-yl}-1-pyridazin-4-ylpropan-1-ol]
24 | 0.0005 to 1 | 1 to 10 | Cn1cc(-c2cnc3[nH]cc(-c4cc(CO)on4)c3c2)cn1 [A105]
25 | 0.0005 to 1 | 1 to 10 | Cn1cc(-c2cnc3[nH]cc(-c4cc(C(O)c5ccccc5)nn4CCO)c3c2)cn1 (stereo not shown) [A107]
26 | 0.0005 to 1 | 1 to 10 | Cn1cc(-c2cnc3[nH]cc(-c4nnc(C5(c6cccnc6)CCCC5)o4)c3c2)cn1 [A110]
27 | 0.0005 to 1 | 0.0005 to 1 | Cn1cc(-c2cnc3[nH]cc(-c4nnc([C@H](N)c5ccccc5Cl)o4)c3c2)cn1 [A112]
28 | 0.0005 to 1 | 1 to 10 | Cn1cc(-c2cnc3[nH]cc(-c4nnc([C@@H](N)c5ccccc5Cl)o4)c3c2)cn1 [A113]
29 | 0.0005 to 1 | 1 to 10 | CN[C@@H](c1ccccc1)c1nnc(-c2c[nH]c3ncc(-c4cnn(C)c4)cc23)o1 [A116]
30 | 1 to 10 | 1 to 10 | Cn1cc(-c2cnc3[nH]cc(-c4nnc(C(N)c5cc(F)cc(F)c5)o4)c3c2)cn1 (stereo not shown) [A117]
31 | 0.0005 to 1 | 0.0005 to 1 | Cn1cc(-c2cnc3[nH]cc(-c4nnc(C(N)c5ccccc5Cl)o4)c3c2)cn1 (stereo not shown) [A118]
32 | 1 to 10 | 1 to 10 | Cn1cc(-c2cnc3[nH]cc(-c4nnc(C5(c6ccccn6)CC5)o4)c3c2)cn1 [A120]
33 | 1 to 10 | 1 to 10 | Cn1cc(-c2cnc3[nH]cc(-c4n[nH]c(C5(c6ccc(Cl)nc6)CC5)n4)c3c2)cn1 [A122, 3-{5-[1-(6-chloropyridin-3-yl)cyclopropyl]-1H-1,2,4-triazol-3-yl}-5-(1-methyl-1H-pyrazol-4-yl)-1H-pyrrolo[2,3-b]pyridine]
34 | 1 to 10 | 1 to 10 | Cn1cc(-c2cnc3[nH]cc(-c4nnc(C5(c6ccc(Cl)nc6)CC5)o4)c3c2)cn1 [A123, 3-{5-[1-(6-chloropyridin-3-yl)cyclopropyl]-1,3,4-oxadiazol-2-yl}-5-(1-methyl-1H-pyrazol-4-yl)-1H-pyrrolo[2,3-b]pyridine]
35 | 0.0005 to 1 | 1 to 10 | Cn1cc(-c2cnc3[nH]cc(-c4nnc(C5(c6cccnc6)CC5)o4)c3c2)cn1 [A124, 5-(1-methyl-1H-pyrazol-4-yl)-3-[5-(1-pyridin-3-ylcyclopropyl)-1,3,4-oxadiazol-2-yl]-1H-pyrrolo[2,3-b]pyridine]
